The source of these data is ChEMBL document CHEMBL5512666, “Selenization of Small Molecule Drugs: A New Player on the Board” (J Med Chem, 2024).

In brackets after ≈: the same amount, converted by molar mass.

For one data set, the target named is Lactoperoxidase (Homo sapiens, UniProt P22079). Briefly: Inhibition of LPO (unknown origin)-mediated L-tyrosine nitration incubated for 20 mins in presence of H2O2 and sodium nitrite by RP-HPLC analysis.
In the next data set the test system is Human alphaherpesvirus 1. As to the kind of experiment: Antiviral activity against HSV-1 infected in African green monkey Vero cells assessed as reduction in virus-induced cytopathic effect incubated for 3 days by MTT assay. Format: functional, organism-based. The conditions noted are these: Human alphaherpesvirus 1, Vero, 72 h. Background: Protection from cytopathic effect is a common read-out in antiviral testing.

The subject of the next data set is Human alphaherpesvirus 3. As to the kind of experiment: Antiviral activity against VZV infected in African green monkey Vero cells assessed as reduction in virus-induced cytopathic effect incubated for 3 days by MTT assay. Format: functional, organism-based. The conditions noted are these: Human alphaherpesvirus 3, Vero, 72 h.
In the next data set the test system is Human betaherpesvirus 5. Briefly: Antiviral activity against […] infected in African green monkey Vero cells assessed as reduction in virus-induced cytopathic effect incubated for 3 days by MTT assay. It is filed as functional, organism-based. The conditions noted are these: Human betaherpesvirus 5, Vero, 72 h.
A further data set relates to Human alphaherpesvirus 2. Briefly: Antiviral activity against HSV-2 infected in African green monkey Vero cells assessed as reduction in virus-induced cytopathic effect incubated for 3 days by MTT assay. Format: functional, organism-based. The conditions noted are these: Human alphaherpesvirus 2, Vero, 72 h.
The test system of the next data set is HCT-116. As to the kind of experiment: Cytotoxicity against human HCT-116 cells measured after 72 hrs. Format: functional, cell-based. The conditions noted are these: HCT-116, 72 h.
In a further data set the test system is A549. As to the kind of experiment: Cytotoxicity against human A549 cells measured after 72 hrs. It is filed as functional, cell-based. The conditions noted are these: A549, 72 h.
Data set [1] is described as follows: Cytotoxicity against mouse L929 cells measured after 72 hrs. Format: toxicity, cell-based.
For another data set, the system named is HeLa. Briefly: Cytotoxicity against human HeLa cells measured after 72 hrs. It is filed as functional, cell-based.
Data set [2] is described as follows: Cytotoxicity against mouse NIH3T3 cells measured after 72 hrs. It is filed as toxicity, cell-based.
In the next data set the test system is Cryptococcus neoformans. Briefly: Antifungal activity against Cryptococcus neoformans CGMCC 2.3161. It is filed as functional.
The test system of data set [3] is Candida albicans. Briefly: Antifungal activity against Candida albicans SC5314. It is filed as functional.
A further data set relates to Aspergillus fumigatus. Briefly: Antifungal activity against Aspergillus fumigatus CGMCC 3.7795. It is filed as functional.
The next data set concerns Candida tropicalis. As to the kind of experiment: Antifungal activity against Candida tropicalis CGMCC 2.3739. It is filed as functional.
The test system of another data set is Nakaseomyces glabratus. As to the kind of experiment: Antifungal activity against Candida glabrata. Format: functional.
The next data set concerns Candida parapsilosis. Briefly: Antifungal activity against Candida parapsilosis 22019. It is filed as functional. The conditions noted are these: Lodderomyces parapsilosis.
Data set [4] deals with Candida albicans. As to the kind of experiment: Antifungal activity against Candida albicans CPCC 400616. Format: functional.
The next data set has as its system Pichia kudriavzevii. As to the kind of experiment: Antifungal activity against Candida krusei AS 2.1045. Format: functional.
The test system of data set [5] is Candida albicans. As to the kind of experiment: Antifungal activity against azole-resistant Candida albicans clinical isolate 904 assessed as fungal growth inhibition incubated for 24 hrs by CLSI protocol based broth microdilution method. It is filed as functional. For orientation: Broth dilution looks for growth in wells or tubes with falling amounts of substance.

Data set [6] is described as follows: Cytotoxicity against human MDA-MB-231 cells assessed as reduction in cell viability incubated for 96 hrs by MTT assay. It is filed as toxicity, cell-based. (In general: Formazan colour is commonly taken as a measure of viable cells.)
The nature of data set [7]: Cytotoxicity against human A549 cells assessed as reduction in cell viability incubated for 96 hrs by MTT assay. Format: toxicity, cell-based.
Data set [8] can be described thus: Cytotoxicity against human SGC cells assessed as reduction in cell viability incubated for 96 hrs by MTT assay. It is filed as toxicity, cell-based.
Data set [9] has as its system Candida albicans. As to the kind of experiment: Antifungal activity against azole-resistant Candida albicans clinical isolate CaR assessed as fungal growth inhibition incubated for 24 hrs by CLSI protocol based broth microdilution method. It is filed as functional.
Data set [10] concerns Candida albicans. Briefly: Antifungal activity against azole-resistant Candida albicans clinical isolate 901 assessed as fungal growth inhibition incubated for 24 hrs by CLSI protocol based broth microdilution method. It is filed as functional.
For data set [11], the system named is Candida albicans. Briefly: Antifungal activity against azole-resistant Candida albicans clinical isolate 632 assessed as fungal growth inhibition incubated for 24 hrs by CLSI protocol based broth microdilution method. Format: functional.
In data set [12] the test system is Candida albicans. Briefly: Antifungal activity against azole-resistant Candida albicans clinical isolate 17 assessed as fungal growth inhibition incubated for 24 hrs by CLSI protocol based broth microdilution method. Format: functional.
Another data set has as its system MHCC97H. Briefly: Antiproliferative activity against human MHCC97H cells assessed as reduction in cell viability incubated for 48 hrs by MTT assay. Format: functional, cell-based.
Data set [13] in a line: Inhibition of TrxR (unknown origin) expressed in MHCC97H cells incubated for 24 hrs by colorimetric assay. Format: cell-based, Homo sapiens.
A short description of data set [14]: Stability in rat plasma assessed as half life. Format: ADME, cell-free.

Sequence of Lactoperoxidase (P22079 whole entry): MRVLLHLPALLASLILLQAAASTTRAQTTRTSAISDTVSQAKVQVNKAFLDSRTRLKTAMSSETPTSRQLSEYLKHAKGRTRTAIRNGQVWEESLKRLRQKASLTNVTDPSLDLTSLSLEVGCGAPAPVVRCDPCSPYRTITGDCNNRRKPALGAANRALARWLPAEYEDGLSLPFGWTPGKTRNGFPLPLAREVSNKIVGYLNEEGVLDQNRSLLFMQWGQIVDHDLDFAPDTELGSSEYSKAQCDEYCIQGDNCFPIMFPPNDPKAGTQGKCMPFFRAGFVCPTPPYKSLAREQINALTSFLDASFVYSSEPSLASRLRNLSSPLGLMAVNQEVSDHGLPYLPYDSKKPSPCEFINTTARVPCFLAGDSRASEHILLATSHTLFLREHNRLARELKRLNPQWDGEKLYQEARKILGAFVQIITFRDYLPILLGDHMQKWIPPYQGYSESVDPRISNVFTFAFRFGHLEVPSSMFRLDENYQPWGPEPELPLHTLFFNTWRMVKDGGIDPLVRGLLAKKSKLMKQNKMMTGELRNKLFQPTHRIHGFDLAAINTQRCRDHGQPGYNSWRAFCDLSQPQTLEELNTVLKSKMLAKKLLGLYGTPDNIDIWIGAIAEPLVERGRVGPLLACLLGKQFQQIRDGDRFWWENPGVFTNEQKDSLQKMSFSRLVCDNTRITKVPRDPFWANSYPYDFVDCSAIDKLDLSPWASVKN

Regarding `COc1cccc(Cn2ccn(Cc3cccc(OC)c3)c2=S)c1`, the IC50 at Lactoperoxidase was found to be 137 µM.

As to `NC1=Nc2c(ncn2C[Se]C(CO)CO)C(N)N1` (centres undefined), the EC50 in the data set on Human alphaherpesvirus 1 is above 100 µM; in the data set with Human alphaherpesvirus 3, above 100 µM; with Human betaherpesvirus 5, 34.3 µM; in the data set on Human alphaherpesvirus 2, above 100 µM.

Regarding `CC[C@@]1(O)C(=O)OCc2c1cc1n(c2=O)Cc2cc3ccccc3nc2-1` [CAMPTOTHECIN], the values for the IC50 in the data set with HCT-116, in the data set on A549 and with HeLa were 11 nM, 21 nM and 108 nM, respectively. Also, the IC50 at 72 h worked out at 1130 nM in [1] and 86 nM in data set [2].

With `CNC1NC(N)=Nc2c1ncn2C[Se]CCO` (centres undefined), the EC50 in the data set on Human alphaherpesvirus 1 was 14.3 µM; in the data set with Human alphaherpesvirus 3 it was above 100 µM; in the data set with Human betaherpesvirus 5, above 100 µM; in the data set on Human alphaherpesvirus 2, 17.6 µM.

Consider `Cc1cccc(C)c1[Se]C(Cn1ccnc1)c1ccc(F)cc1` (centres undefined), for which the MIC against Cryptococcus neoformans was 0.13 µg/mL (≈ 0.348 µM); against Candida albicans [3] it was 0.03 µg/mL (≈ 0.0804 µM); in the data set on Aspergillus fumigatus, 2 µg/mL (≈ 5.36 µM); in the data set with Candida tropicalis, 0.06 µg/mL (≈ 0.161 µM); against Nakaseomyces glabratus, 0.25 µg/mL (≈ 0.67 µM); against Candida parapsilosis, 0.13 µg/mL (≈ 0.348 µM). Moreover, the MIC with Candida albicans [4] is 0.03 µg/mL (≈ 0.0804 µM); in the data set with Pichia kudriavzevii, 0.06 µg/mL (≈ 0.161 µM).

In the case of `Clc1ccc(-c2nn[se]c2-n2ccnc2)c(Cl)c1`, the MIC was determined as 16 µg/mL (≈ 46.5 µM) in the data set on Candida albicans [5]; 1 µg/mL (≈ 2.91 µM) in the data set with Candida albicans [9]; 32 µg/mL (≈ 93 µM) in the data set with Candida albicans [10]; 16 µg/mL (≈ 46.5 µM) in the data set with Candida albicans [11]; 16 µg/mL (≈ 46.5 µM) in the data set with Candida albicans [12]. Besides, the IC50 at 96 h in [6] is 14.7 µg/mL (≈ 42.7 µM); in [7], 16.2 µg/mL (≈ 47 µM); in data set [8] it was 14.6 µg/mL (≈ 42.5 µM).

As for `COc1cc2c(c(OC)c1OC)-c1ccc(OC)c(=O)cc1[C@@H](NC(C)=O)CC2` [COLCHICINE], the IC50 at 96 h in data set [8] stood at 0.045 µg/mL (≈ 0.113 µM).

In the case of `c1ccc(-c2nn[se]c2-n2cncn2)cc1`, the MIC came out at 32 µg/mL (≈ 116 µM) with Candida albicans [5]; 2 µg/mL (≈ 7.24 µM) with Candida albicans [9]; 32 µg/mL (≈ 116 µM) with Candida albicans [10]; 32 µg/mL (≈ 116 µM) in the data set with Candida albicans [11]; 16 µg/mL (≈ 57.9 µM) in the data set with Candida albicans [12]. Besides, the IC50 at 96 h in [6] amounted to 80.7 µg/mL (≈ 292 µM); in data set [7], 20.5 µg/mL (≈ 74.3 µM); in data set [8], 30.8 µg/mL (≈ 111 µM).

On to `NC1=Nc2c(ncn2C[Se]CCO)C(N)N1` (centres undefined), for which the EC50 with Human alphaherpesvirus 1 was 15.4 µM; in the data set on Human alphaherpesvirus 3, above 100 µM; with Human betaherpesvirus 5 it was above 100 µM; with Human alphaherpesvirus 2, 32.2 µM.

For the compound `N#Cc1cccc(-c2ccc(=O)n(Cc3cccc(-c4ncc([Se]CCCN5CCOCC5)cn4)c3)n2)c1`, the IC50 with MHCC97H was found to be 29 nM; in [13] it was 117 nM.

On to `Cc1ccccc1[Se]C(Cn1ccnc1)c1ccc(Cl)cc1` (centres undefined), for which the MIC came out at 0.5 µg/mL (≈ 1.33 µM) with Cryptococcus neoformans; 0.03 µg/mL (≈ 0.0798 µM) in the data set on Candida albicans [3]; 4 µg/mL (≈ 10.6 µM) against Aspergillus fumigatus; 0.03 µg/mL (≈ 0.0798 µM) in the data set with Candida tropicalis; 0.5 µg/mL (≈ 1.33 µM) with Nakaseomyces glabratus; 0.5 µg/mL (≈ 1.33 µM) in the data set with Candida parapsilosis. Besides, the MIC in the data set with Candida albicans [4] amounted to 0.06 µg/mL (≈ 0.16 µM); against Pichia kudriavzevii it was 0.13 µg/mL (≈ 0.346 µM). Besides, the half-life in data set [14] was above 360 min.

The IC50 is the midpoint of a concentration-inhibition curve. Usually EC50 stands for the concentration that produces a half-maximal response. A word on the MIC: it is the smallest concentration in the dilution series that meets the test's criterion for growth inhibition. One may read the half-life as the time in which the quantity being followed falls by half.
